Measured values from patent US6160087A, “Peptides having an amino acid sequence from the fimbrial protein of porphyromonas gingivalis and their uses” (priority 1993, dated 2000).
Where no end group is shown, it is not given here.

What was measured:
[1] = tested on: anti-Porphyomonas gingivalis fimbria antibodies contained in sera of patients with periodontal disease; assay: Assay of the specific antibody in serum using plates coated with peptide-modified BSA (ELISA); assay type: binding, human; details: average absorbance (405 nm) of 3 specimens, serum diluted 100 times
Description: One mg of each peptide synthesized in Example 2 was dissolved in 1 ml of 0.1 M phosphate buffered saline (PBS, pH 6.0), 5 mg of sulfated SMCC (made by Pierce Co.) was added, and the mixture was incubated at 30° C. for 30 minutes to conduct maleimidization, and then subjected to Sephadex G-10 column chromatography, and the first eluate fraction was collected. 7 mg of bovine serum albumin (BSA: made by Wako Pure Chemical Industries, Ltd.) was dissolved in 1 ml of 0.1 M phosphate buffer (pH 6.0), 10 mM EDTA, the solution was mixed with the above maleimidized peptide, and the mixture was subjected to reaction at 30° C. for 1 hour. The resultant peptide-modified BSA was subjected to Sephadex G-50 column chromatography, and the first eluate fraction was collected as a plate-preparing antigen solution.
Then, six kind of peptides were synthesized after the process of Example 2, and a plate-preparing antigen solution was similarly prepared as a control.
Each of the resultant antigen solutions was diluted with 0.1 M carbonate buffer (pH 9.6), 150 mM NaCl to give 100 ml of a solution. 10 μl/well of the solution was put in a polystyrene-made microtiter plate (Immunoplate II; maxisorp type; made by Nunc Co.) and left alone at 4° C. overnight, and washing was conducted three times each with 200 μl/well of PBS, using a microtiter automatic washer (hereafter abbreviated as washer; made by Bio-Rad Laboratories). 250 μl/well of PBS containing 0.1% gelatin (made by Nitta Gelatin Co., Ltd.) was added and the mixture was allowed to stand at 4° C. overnight to block the plate. The blocking solution was removed by absorption, and the plate was dried by a vacuum dryer, put in an aluminum bag, and after sealing the bag, kept at 4° C. for the following assay.
Sera of patients of periodontal disease (n=3) and normal subjects (n=3) were used as samples, and each serum was diluted 100 times with PBS containing 10% bovine serum. 100 μl portions of these dilutions were added to the plates coated with various antigens, respectively, and incubation was conducted at 37° C. for 1 hour. Each plate was washed three times with 200 μl of PBST using the washer, 100 μl of a commercially available […] (diluted 10^3 times)/0.1% Casein/PBST was added as a secondary antibody, and incubation was conducted again at 37° C. for 1 hour. The plate was washed in the same manner as above, 100 μl of an o-phenylenediamine solution was added, incubation was conducted at 37° C. for 30 minutes, 100 μl of 0.1 N sulfuric acid was added to stop the reaction, and then, absorbance (405 nm) was measured by a microplate reader (made by Bio-Rad Laboratories) using the reaction well of no addition of the specimen as a control. The measures values are average absorbances of 3 specimens each of the patient group of periodontal disease and the normal subject group.

[2] = Immunization of mice with the peptides: body weight; assay type: in vivo; details: mice immunized with FCA emulsion, 3 animals per group
Description: (§1) Each peptide synthesized in Example 2 was dissolved in PBS so as to make the concentration 200 μg/ml, the solution was mixed with the same volume of FCA, and the mixture after emulsification was subcutaneously injected into mice at the back (3 animals per group). 4 weeks later, the antibody titer in the serum or saliva against the peptide was assayed by an ELISA method.

[3] = tested on: fimbrial protein of Porphyomonas gingivalis; assay: Immunization of mice with the peptides: antibody titer in serum or saliva by ELISA; assay type: in vivo; details: A405 value by the ELISA method, with FCA, 4 weeks later
Description: as §1
The fimbrial protein of Porphyomonas gingivalis was adsorbed on each well of a 96-well microtiter plate for ELISA, and a dilution of the serum with PBS (1/10^5), a dilution of the saliva with PBS (1/500), or a solution obtained by adding each peptide or the fimbrial protein of Porphyomonas gingivalis is to the dilution of the serum or saliva to cause absorption was put in the well. Reaction was conducted at 37° C. for 1 hour, and then assay was conducted by a usual ELISA method.

Porphyomonas gingivalis = assay type: in vivo, guinea pig; details: with FCA; for Degree of redness Longest length × shortest length: 500 μg/animal, inoculation on the 28th day, 24 hours later; for Inhibition rate: relative to the FIA inoculation group
Description: Each peptide synthesized in Example 2 was administered together with FIA (Freund's incomplete adjuvant) or FCA (Freund's complete adjuvant), as a water-in-oil type emulsifier, into the sole of the right hind leg of a guinea pig in an amount of 500 μg/animal/time. Thereafter, on the 28th day, 200 μl of a suspension of 10^11 cells/ml of the bacterium was intracutaneously inoculated into the right flank of the same guinea pig after the hair at the region was shaved. 24 hours later, the longest length and shortest length of the resultant red coloring were measured, and the product of them was calculated. From the product was calculated the inhibition rate.

Substance | Antibody titer, Normal subject group [1] | Antibody titer, Patient group with peridontal disease [1] | Body weight (Average g) [2] [g] | Antibody titer Saliva (1/500) After absorption [3] | Antibody titer Saliva (1/500) Before absorption [3] | Antibody titer Serum (1/10^5) After absorption [3] | Antibody titer Serum (1/10^5) Before absorption [3] | Degree of redness Longest length × shortest length (Porphyomonas gingivalis) [mm^2] | Inhibition rate (Porphyomonas gingivalis) [%]
LCVYGKLQKN [Comparative peptide, reference compound] | 0.213 | 0.182 | – | – | – | – | – | – | –
Peptide 6: synthetic peptide, epitope of the 41 kD fimbrial subunit protein of Porphyomonas gingivalis; sequence in Table 1, not shown (TFNGAYTPAN) | 0.141 | 0.675 | 26 | 0.11 | 0.39 | 0.12 | 0.41 | 1112 | 42.9
Peptide 4: synthetic peptide, epitope of the 41 kD fimbrial subunit protein of Porphyomonas gingivalis; sequence in Table 1, not shown (AAGLIMTAEP) | 0.197 | 0.941 | 27 | 0.12 | 0.49 | 0.13 | 0.52 | 851 | 56.3
RTLVVMANTG [Comparative peptide, reference compound] | 0.161 | 0.199 | – | – | – | – | – | – | –
VMVYNGEQQE [Comparative peptide, reference compound] | 0.172 | 0.165 | – | – | – | – | – | – | –
Peptide 3: synthetic peptide, epitope of the 41 kD fimbrial subunit protein of Porphyomonas gingivalis; sequence in Table 1, not shown (AENQEAAGLI) | 0.214 | 0.623 | 26 | 0.09 | 0.37 | 0.16 | 0.38 | 1155 | 40.7
Peptide 2: synthetic peptide, epitope of the 41 kD fimbrial subunit protein of Porphyomonas gingivalis; sequence in Table 1, not shown (EVKALTTELT) | 0.205 | 0.566 | 26 | 0.17 | 0.36 | 0.15 | 0.34 | 1179 | 39.5
NHIENDPLKI [Comparative peptide, reference compound] | 0.201 | 0.205 | – | – | – | – | – | – | –
Peptide 9: synthetic peptide, epitope of the 41 kD fimbrial subunit protein of Porphyomonas gingivalis; sequence in Table 1, not shown (EGKTYYPVLV) | 0.186 | 0.546 | 26 | 0.13 | 0.34 | 0.13 | 0.32 | 1265 | 35.0
Peptide 5: synthetic peptide, epitope of the 41 kD fimbrial subunit protein of Porphyomonas gingivalis; sequence in Table 1, not shown (TGSLTTFNGA) | 0.165 | 0.760 | 28 | 0.15 | 0.42 | 0.11 | 0.45 | 1063 | 45.4
DANYLTGSLT [Comparative peptide, reference compound] | 0.145 | 0.196 | – | – | – | – | – | – | –
Peptide 8: synthetic peptide, epitope of the 41 kD fimbrial subunit protein of Porphyomonas gingivalis; sequence in Table 1, not shown (ANGGTIHPTI) | 0.182 | 0.935 | 25 | 0.14 | 0.45 | 0.11 | 0.49 | 1022 | 47.5
WLSRNYVAPA [Comparative peptide, reference compound] | 0.204 | 0.210 | – | – | – | – | – | – | –
